The record followed here is patent US20230172996A1, “COMPOSITION FOR ALLEVIATING PULMONARY HYPERTENSION, METHOD FOR PREDICTING PROGNOSIS OF PULMONARY HYPERTENSION, METHOD FOR ASSISTING IN DETERMINING SEVERITY OF PULMONARY HYPERTENSION, AND METHOD FOR ASSISTING IN DIAGNOSING PULMONARY HYPERTENSION” (JSR Corporation, priority 2020, published 2023).

The assay concerns rat model of pulmonary hypertension induced by exposure to hypoxia. As to the kind of experiment: Butyrate-containing water in rat model of pulmonary hypertension induced by exposure to hypoxia. It counts as in vivo, SD rats. Conditions: 100 mM butyrate in water ad libitum for three weeks, oral, compared to vehicle administration group. As for the experimental part: Rats were anesthetized by inhalation of isoflurane (Pfizer) for induction of sedation and analgesia. Throughout the procedure, the body temperature of the rats was maintained at 37 to 38° C. using a rectal thermistor coupled with a thermostatically controlled heating pad. The trachea was cannulated, and the lungs were ventilated with a mouse ventilator (Harvard Apparatus) at a tidal volume of 10 μL/g at a frequency of 70/min. A polyethylene tube was inserted into the right external jugular vein and advanced into the right ventricle to measure right ventricular pressure (RVP). RVP signals were detected by a pressure transducer (MLT0670; ADInstruments), and the signals were relayed to pressure amplifiers (ML117; ADInstruments), and then were sampled continuously with a PowerLab system (ADInstruments, Colorado Springs, Colo.) and recorded on a computer using Chart software (ADInstruments). Heart rate was derived from the right ventricular systolic peaks.
After right ventricular systolic pressure measurement, the rats were killed by anesthesia overdose, and the heart was excised. […] The tissues were blotted, and the weight of the right ventricle (RV) and the weight of the left ventricle (LV)+septum were measured. The ratio of RV to LV+septum weight (the ratio of RV to LV weight) was calculated and used as an index of right ventricular hypertrophy. […]

Regarding `CCCC(=O)[O-].[Na+]` [butyrate, sodium butyrate], under “FIG. 33(A)”, the “right ventricular systolic pressure” value is “significant inhibition”. In addition, the “right ventricular hypertrophy (ratio of RV to LV weight)” value (FIG. 33(B)) was “significant inhibition”.
